Results reported in US5559209A, “Regulator regions of G proteins” (The General Hospital Corporation, priority 1993, dated 1996).
Where no end group is shown, it is not given here.

How the values were obtained:
[1] = biological target: T1, Gs (Bos taurus, UniProt P04896); experiment: GTPγS binding, βIII-2-induced Gs activation; assay type: biochemical, bovine; settings: 10 nM Gs, 1 μM βIII-2, 10 min
T1 construct: Trimeric Gs and Gβγ purified from bovine brain to near homogeneity; from tissue; host or cells: bovine brain
T1 sequence (P04896 2-394 limits assumed): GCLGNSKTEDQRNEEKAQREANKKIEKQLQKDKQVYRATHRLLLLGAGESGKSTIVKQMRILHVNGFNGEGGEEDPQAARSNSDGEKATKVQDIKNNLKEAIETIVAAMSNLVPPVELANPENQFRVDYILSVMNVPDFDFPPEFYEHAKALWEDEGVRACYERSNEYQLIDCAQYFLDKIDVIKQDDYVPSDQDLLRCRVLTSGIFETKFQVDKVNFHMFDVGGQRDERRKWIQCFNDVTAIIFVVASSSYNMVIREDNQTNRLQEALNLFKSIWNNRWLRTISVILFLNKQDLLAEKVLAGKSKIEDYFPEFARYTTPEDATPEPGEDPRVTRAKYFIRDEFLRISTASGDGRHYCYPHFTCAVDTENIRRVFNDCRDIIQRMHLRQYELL
T1 sequence (P62871 2-340 partner limits assumed): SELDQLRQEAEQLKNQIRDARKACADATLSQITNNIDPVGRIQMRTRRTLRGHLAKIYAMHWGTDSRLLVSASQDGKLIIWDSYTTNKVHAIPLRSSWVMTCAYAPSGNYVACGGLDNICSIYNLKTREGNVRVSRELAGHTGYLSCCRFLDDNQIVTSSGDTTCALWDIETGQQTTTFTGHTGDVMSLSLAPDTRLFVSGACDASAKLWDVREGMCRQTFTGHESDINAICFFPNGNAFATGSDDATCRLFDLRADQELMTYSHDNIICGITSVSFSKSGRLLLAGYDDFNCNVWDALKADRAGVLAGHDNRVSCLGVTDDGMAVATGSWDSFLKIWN
T1 sequence (P63212 2-68 partner limits assumed): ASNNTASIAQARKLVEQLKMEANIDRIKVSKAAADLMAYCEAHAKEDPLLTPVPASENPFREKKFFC
Protocol: (§1) Materials and Methods The in vitro assays described below utilize the couplone portion of each of a number of G-coupled receptors, instead of an intact receptor molecule, as a means for activating the corresponding anticouplone or intact G-protein. […]
(§2) GTPγS binding Assay--GTPγS binding to G proteins was assayed at 37° C. in 20 mM Hepes/NaOH buffer (pH 7.4) containing 130 μM MgCl2, 110 μM EDTA and 60 nM [^35 S]GTPγS, as described previously (Okamoto et al., 1990). […] The total amount of G protein was measured as maximal GTPγS binding at room temperature, as described (Okamoto et al., Cell 67:723-730, 1991a). […] Thus, the apparent first-order rate constant for GTPγS binding (kapp), which is equal to the slope of the tangent to the GTPγS binding curve at time 0 and represents the actual GTPγS binding rate, was calculated from this equation.
GTPβS binding was measured following incubation of solubilized Gs at 10 nM with 1 μM βIII-2 (RRSSKFCLKEHKALK; SEQ ID NO: 29) in the presence of ACGi2 for 10 min. […]

[2] = biological target: Gi1 (Bos taurus, UniProt P63097); experiment: GTPγS binding, peptide 14-induced Gi1 activation; assay type: biochemical; settings: high concentrations (≥30 μM) of ACGi2; 10 nM Gi1, 30 μM peptide 14, 4 min
Sequence of Gi1 (P63097 2-354 limits assumed): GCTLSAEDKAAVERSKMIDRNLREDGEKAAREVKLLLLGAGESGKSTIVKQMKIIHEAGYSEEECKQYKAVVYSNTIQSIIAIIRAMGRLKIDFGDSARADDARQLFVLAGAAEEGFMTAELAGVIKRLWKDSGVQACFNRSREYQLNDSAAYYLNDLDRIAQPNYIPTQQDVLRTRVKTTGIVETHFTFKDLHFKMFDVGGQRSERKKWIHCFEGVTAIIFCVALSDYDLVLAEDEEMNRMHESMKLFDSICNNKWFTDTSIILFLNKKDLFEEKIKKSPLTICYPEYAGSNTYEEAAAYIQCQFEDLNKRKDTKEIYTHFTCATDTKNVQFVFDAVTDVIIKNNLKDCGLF
Sequence of Gi1 (P62871 2-340 partner limits assumed): as the sequence (P62871 2-340 partner limits assumed) above
Sequence of Gi1 (P63212 2-68 partner limits assumed): as the sequence (P63212 2-68 partner limits assumed) above
Protocol: (§3) GTPγS binding Assay--GTPγS binding to G proteins was assayed at 37° C. in 20 mM Hepes/NaOH buffer (pH 7.4) containing 130 μM MgCl2, 110 μM EDTA and 60 nM [^35 S]GTPγS, as described previously (Okamoto et al., 1990). GTPγS binding to polypeptides was negligible. The total amount of G protein was measured as maximal GTPγS binding at room temperature, as described (Okamoto et al., Cell 67:723-730, 1991a). [^35 S]GTPγS was purchased from DuPont-New England Nuclear. Binding of GTPγS to G proteins obeyed first-order kinetics according to the equation ln[(BT-B)/BT]=-kapp t, where B is the binding at time t and BT is the total binding observable at an infinite time. Thus, the apparent first-order rate constant for GTPγS binding (kapp), which is equal to the slope of the tangent to the GTPγS binding curve at time 0 and represents the actual GTPγS binding rate, was calculated from this equation.
(§4) Peptide 14 is capable of activating Gi1 and Gi3 as well as Gi2 (Okamoto et al., 1990). The effect of ACGi2 on peptide 14-induced activation of these Gi proteins was examined as follows: 10 nM Gi1 (.quadrature.) or Gi3 (.diamond-solid.) was incubated with 30 μM peptide 14 in the presence of various concentrations of ACGi2 for 4 min, and GTPβS binding was measured. The fractional GTPγS binding to Gi1 or Gi3 at 0% was (in 4 min^-1) 0.38 or 0.30, and that at 100% was 0.54 or 0.63, respectively.

[3] = biological target: T2, Gi3 (Bos taurus, UniProt Q3ZCA7); experiment: GTPγS binding, peptide 14-induced Gi3 activation; assay type: biochemical, bovine; settings: 10 nM Gi3, 30 μM peptide 14, 4 min
T2 construct: was purified from bovine spleen and used in combination with 1.5-fold concentrated Gβγ; from tissue; host or cells: bovine spleen (Gi3 α); bovine brain (Gβγ)
T2 sequence (Q3ZCA7 2-354 limits assumed): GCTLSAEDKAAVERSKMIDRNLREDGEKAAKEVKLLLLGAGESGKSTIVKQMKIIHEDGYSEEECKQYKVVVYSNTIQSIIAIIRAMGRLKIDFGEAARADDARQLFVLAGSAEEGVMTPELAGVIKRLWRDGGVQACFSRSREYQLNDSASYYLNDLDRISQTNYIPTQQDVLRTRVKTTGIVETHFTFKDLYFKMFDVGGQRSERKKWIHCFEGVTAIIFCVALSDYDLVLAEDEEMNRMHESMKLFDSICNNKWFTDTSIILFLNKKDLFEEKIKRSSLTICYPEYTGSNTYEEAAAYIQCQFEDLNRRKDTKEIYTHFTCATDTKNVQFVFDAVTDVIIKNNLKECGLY
T2 sequence (P62871 2-340 partner limits assumed): as the sequence (P62871 2-340 partner limits assumed) above
T2 sequence (P63212 2-68 partner limits assumed): as the sequence (P63212 2-68 partner limits assumed) above
Protocol: as §1, §2
as §4, with “The fractional GTPγS binding to Gi1 or Gi3 at 0% was (in 4 min^-1) 0.38 or 0.30, and that at 100% was 0.54 or 0.63, respectively.” left out

[4] = biological target: T3, Gi2 (Bos taurus, UniProt A7MBH9); experiment: GTPγS binding, MIII-induced Gi2 activation; assay type: biochemical, bovine; settings: 10 nM Gi2, 1 μM MIII, 5 min; read-out: IC50, attenuation of MIII-induced Gi2 activation
T3 construct: trimeric Gi2 (i.e., Gi2 αβγ) purified from bovine brain to near homogeneity; from tissue; host or cells: bovine brain
T3 sequence (A7MBH9 2-355 limits assumed): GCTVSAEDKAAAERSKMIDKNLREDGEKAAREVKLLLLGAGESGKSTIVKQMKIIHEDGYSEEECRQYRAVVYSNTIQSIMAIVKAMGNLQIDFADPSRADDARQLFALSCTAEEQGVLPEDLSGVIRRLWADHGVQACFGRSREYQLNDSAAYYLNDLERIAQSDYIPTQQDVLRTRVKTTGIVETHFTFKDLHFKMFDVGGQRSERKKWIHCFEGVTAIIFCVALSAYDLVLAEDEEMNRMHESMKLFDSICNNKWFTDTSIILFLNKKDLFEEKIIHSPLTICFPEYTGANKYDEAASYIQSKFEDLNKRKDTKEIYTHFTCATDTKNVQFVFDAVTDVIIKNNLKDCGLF
T3 sequence (P62871 2-340 partner limits assumed): as the sequence (P62871 2-340 partner limits assumed) above
T3 sequence (P63212 2-68 partner limits assumed): as the sequence (P63212 2-68 partner limits assumed) above
Protocol: as §1, §2
The MIII peptide is a Gi /Go -activator region in the third intracellular loop of the G-coupled receptor termed M4 AChR (Okamoto et al., J. Biol. Chem. 267:8342-8346, 1992). […] In the experiments illustrated in FIG. 1D, 10 nM Go (.quadrature.) or Gi2 (.diamond-solid.) was incubated with 1 μM MIII for 2 or 5 min, respectively, and GTPγS binding was measured in the same manner as in FIG. 1A. […]

[5] = biological target: Go (Homo sapiens, UniProt P09471); experiment: GTPγS binding, MIII-induced Go activation; assay type: biochemical; settings: 10 nM Go, 1 μM MIII, 2 min
Sequence of Go (P09471 2-354 limits assumed): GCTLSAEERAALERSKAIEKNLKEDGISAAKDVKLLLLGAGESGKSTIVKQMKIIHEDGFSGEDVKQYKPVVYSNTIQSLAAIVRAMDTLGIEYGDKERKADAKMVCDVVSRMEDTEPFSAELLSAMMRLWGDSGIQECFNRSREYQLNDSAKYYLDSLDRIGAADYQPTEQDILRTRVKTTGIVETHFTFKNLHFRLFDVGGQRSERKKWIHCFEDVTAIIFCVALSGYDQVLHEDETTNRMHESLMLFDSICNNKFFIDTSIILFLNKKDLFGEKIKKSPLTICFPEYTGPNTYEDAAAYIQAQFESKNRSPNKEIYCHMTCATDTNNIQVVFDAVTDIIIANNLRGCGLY
Sequence of Go (P62873 2-340 partner limits assumed): as the sequence (P62871 2-340 partner limits assumed) above
Sequence of Go (P59768 2-68 partner limits assumed): as the sequence (P63212 2-68 partner limits assumed) above
Protocol: as §3
The MIII peptide is a Gi /Go -activator region in the third intracellular loop of the G-coupled receptor termed M4 AChR (Okamoto et al., J. Biol. Chem. 267:8342-8346, 1992). This peptide has the sequence RNQVRKKRQMAARERKVTR (SEQ ID NO: 30). In the experiments illustrated in FIG. 1D, 10 nM Go (.quadrature.) or Gi2 (.diamond-solid.) was incubated with 1 μM MIII for 2 or 5 min, respectively, and GTPγS binding was measured in the same manner as in FIG. 1A. […]

DAVTDVIIKNNLKDC [ACGi2, DAVTDVIIKNNLKDC]
maximal inhibition of βIII-2-stimulated Gs [1]: 40%
maximal inhibition of peptide 14-induced Gi1 activation [2]: 30%
maximal inhibition of peptide 14-induced Gi3 activation [3]: ≈ 60%
IC50 [4]: 10 µM
IC50 [5]: ~30 µM
